In PMC10794144, “A novel antibiotic class targeting the lipopolysaccharide transporter” (Nature, 2024):
Like-named read-outs stand apart in the source and are kept apart here.

Assays:
K. pneumoniae = assay: MIC versus efflux impaired strains; type: cell-based, Klebsiella pneumoniae
Protocol: MIC determinations were performed using the broth microdilution method and in line with CLSI guidelines M07 and M100 (refs. [37],[38]). Bacterial inocula were prepared by diluting a 0.5 McFarland suspension in CAMHB or lysogeny broth (LB) specifically for A. baylyi isolates. […] MIC values of all of the tested antibiotics were read as the lowest compound concentration inhibiting bacterial growth by naked eye or beyond which the OD600 ceased to decrease.

[1] = Human plasma precipitation assay; parameters: key: 0: none; 1: mild; 2: moderate; 3: marked; conditions: observed only at 2 mg/mL (0.125–2 mg/mL tested)
Protocol: For the plasma precipitation assay, test item formulations of compounds were diluted as follows with the vehicle (0.9% aqueous sodium chloride solution): undiluted, 1:2, 1:4, 1:8 and 1:16. These serial dilutions were then added into test tubes containing 0.5 ml of plasma to give a final assay volume of 1 ml with a final concentration of 4 mg ml^−1 assay volume or less. After centrifugation of the samples (1,811g; 10 min; at room temperature), plasma precipitation was visually determined by scoring the resulting pellet (score: 0, none; 1, mild; 2, moderate; 3, marked).

A. baumannii ACC01073 = assay: Time–kill kinetics; type: cell-based, Acinetobacter baumannii
Protocol: Time–kill studies were performed according to the CLSI standard procedure M26-A[40]. […] A. baumannii colonies from agar plates were inoculated into CAMHB supplemented with 20% human serum and incubated overnight at 35 ± 2 °C in ambient air under shaking. The overnight culture was diluted 1:10,000 and further incubated for 2 h. A total of 5 ml of the bacterial log-phase suspension was transferred into six-well plates. […] The six-well plates were incubated at 35 ± 2 °C in ambient air under shaking (100 rpm) for 24 h, 150 μl was withdrawn at the selected timepoints (0, 2, 4, 8, 12, 16, 20 and 24 h), diluted, plated on a Mueller–Hinton agar plate and incubated overnight for CFU determination. GraphPad Prism v.8 was used for graphical presentation of the data.

A. baylyi LptB2FGC = assay: LPS-release assay, proteoliposomes to LptA; type: biochemical, Acinetobacter baylyi
Protocol: Proteoliposomes were prepared as described previously. Aqueous E. coli polar lipid extract (Avanti Polar Lipids) (30 mg ml^−1) and aqueous LPS from E. coli EH100 (Ra mutant; Sigma-Aldrich) (2 mg ml^−1) were sonicated briefly for homogenization. A mixture of 20 mM Tris-HCl (pH 8.0), 150 mM NaCl, 7.5 mg ml^−1 E. coli polar lipids, 0.5 mg ml^−1 LPS and 0.25% DDM was prepared and kept on ice for 10 min. Purified LptB2FGC was added to a final concentration of 0.86 μM, and the mixture was left on ice for 20 min. The mixture was diluted 100-fold with cold 20 mM Tris-HCl (pH 8.0) and 150 mM NaCl and kept on ice for 20 min. The proteoliposomes were pelleted (300,000g, 2 h, 4 °C), resuspended in 20 mM Tris-HCl (pH 8.0) and 150 mM NaCl, diluted 100× and centrifuged (300,000g, 2 h, 4 °C). The pellets were resuspended in a mixture of 20 mM Tris-HCl (pH 8.0), 150 mM NaCl and 10% glycerol (250 μl per 100 μl of the original predilution solution), homogenized by sonication, flash-frozen and stored at −80 °C until use.
The levels of release of LPS from proteoliposomes to LptA were measured as previously described. Assays used 60% proteoliposomes (by volume) in a solution containing 50 mM Tris-HCl (pH 8.0), 500 mM NaCl, 10% glycerol and 2 µM LptA^I36pBPA. Reaction mixtures were incubated with drug for 10 min at room temperature, as applicable. […]

[2] = system: A. baumannii MDR isolates; assay: Single-step spontaneous mutation frequency; type: cell-based, Acinetobacter baumannii
Protocol: Molten Mueller–Hinton agar (19 ml) supplemented with 20% human serum was added to 1 ml of compound at 20× the final concentration, poured immediately into Petri dishes (100 mm diameter) and gently mixed. Then, 2–3 colonies from agar plates were inoculated into CAMHB and incubated overnight under shaking (150 rpm). […] The agar plates were incubated aerobically at 35 ± 2 °C.

CN1C(=O)[C@H](CCCCN)NC(=O)[C@H](CCCN)NCc2cccnc2Sc2c(Cl)ccc(Cl)c2CNC(=O)[C@@H]1Cc1c[nH]c2ccccc12 [RO7075573]
MIC (K. pneumoniae; K. pneumoniae 1161486a, efflux impaired, Δ acrAB): >64 µg/mL
MIC (K. pneumoniae; Klebsiella pneumoniae, K. pneumoniae 1161486, WT, read-out: MIC): > 64 µg/mL

CN1C(=O)[C@H](CCCCN)NC(=O)[C@H](CCCN)NCc2cccnc2Sc2cccc(-c3ccc(C(=O)O)cc3)c2CNC(=O)[C@@H]1Cc1c[nH]c2ccccc12 [zosurabalpin]
Precipitation score [1]: Observed only at 2 mg/mL^6 (1)
Time–kill outcome (A. baumannii ACC01073): bactericidal effect above 4× MIC
LPS transport (A. baylyi LptB2FGC; complexes with LptF E249K or I317N): did not inhibit LPS transport
LPS extraction to LptA (A. baylyi LptB2FGC; wild-type LptB2FGC proteoliposomes, biological triplicate): blocked LPS extraction at concentrations comparable to growth inhibitory concentrations
PROPORTION_R ([2]; A. baumannii ACC00445, inoculum 3.30E+08, selection 2xMIC, 0.5 ug/ml): 1.70E-07
PROPORTION_R ([2]; A. baumannii ACC00445, inoculum 3.30E+08, selection 4xMIC, 1 ug/ml): 6.50E-08
PROPORTION_R ([2]; A. baumannii ACC00445, inoculum 3.30E+08, selection 8xMIC, 2 ug/ml): 3.10E-09
PROPORTION_R ([2]; A. baumannii ACC00445, inoculum 3.30E+08, selection 16xMIC, 4 ug/ml): <3.1E-09
PROPORTION_R ([2]; A. baumannii ACC00535, inoculum 3.50E+08, selection 4xMIC, 0.5 ug/ml): 1.50E-07
PROPORTION_R ([2]; A. baumannii ACC00535, inoculum 3.50E+08, selection 8xMIC, 1 ug/ml): 8.90E-08
PROPORTION_R ([2]; A. baumannii ACC00535, inoculum 3.50E+08, selection 16xMIC, 2 ug/ml): <2.9E-09
PROPORTION_R ([2]; A. baumannii ACC01073, inoculum 2.80E+08, selection 2xMIC, 2 ug/ml): 1.10E-08
PROPORTION_R ([2]; A. baumannii ACC01073, inoculum 2.80E+08, selection 4xMIC, 4 ug/ml): 7.30E-09
PROPORTION_R ([2]; A. baumannii ACC01073, inoculum 2.80E+08, selection 8xMIC, 8 ug/ml): <3.6E-09
PROPORTION_R ([2]; A. baumannii ACC01073, inoculum 2.80E+08, selection 16xMIC, 16 ug/ml): <3.6E-09
PROPORTION_R ([2]; A. baumannii ACC01077, inoculum 2.80E+08, selection 2xMIC, 0.5 ug/ml): 3.60E-09
PROPORTION_R ([2]; A. baumannii ACC01077, inoculum 2.80E+08, selection 4xMIC, 1 ug/ml): <3.6E-09
PROPORTION_R ([2]; A. baumannii ACC01077, inoculum 2.80E+08, selection 8xMIC, 2 ug/ml): <3.6E-09
PROPORTION_R ([2]; A. baumannii ACC01077, inoculum 2.80E+08, selection 16xMIC, 4 ug/ml): <3.6E-09
PROPORTION_R ([2]; A. baumannii ACC01085_CDC AR307, inoculum 5.50E+08, selection 2xMIC, 0.5 ug/ml): 1.10E-06
PROPORTION_R ([2]; A. baumannii ACC01085_CDC AR307, inoculum 5.50E+08, selection 4xMIC, 1 ug/ml): <1.8E-09
PROPORTION_R ([2]; A. baumannii ATCC BAA-747, inoculum 7.50E+07, selection 8xMIC, 0.5 ug/ml): <1.3E-08
PROPORTION_R ([2]; A. baumannii ATCC BAA-747, inoculum 7.50E+07, selection 16xMIC, 1 ug/ml): <1.3E-08
PROPORTION_R ([2]; A. baumannii ROB08706, inoculum 5.00E+07, selection 2xMIC, 2 ug/ml): 4.00E-08
PROPORTION_R ([2]; A. baumannii ROB08706, inoculum 5.00E+07, selection 4xMIC, 4 ug/ml): 6.00E-08
PROPORTION_R ([2]; A. baumannii ROB08706, inoculum 5.00E+07, selection 8xMIC, 8 ug/ml): <2.0E-08
PROPORTION_R ([2]; A. baumannii ROB08706, inoculum 5.00E+07, selection 16xMIC, 16 ug/ml): <2.0E-08
PROPORTION_R ([2]; A. baumannii ROB08708, inoculum 2.40E+08, selection 4xMIC, 0.5 ug/ml): 1.10E-07
PROPORTION_R ([2]; A. baumannii ROB08708, inoculum 2.40E+08, selection 8xMIC, 1 ug/ml): <4.2E-09
PROPORTION_R ([2]; A. baumannii ROB08708, inoculum 2.40E+08, selection 16xMIC, 2 ug/ml): <4.2E-09
Single-step spontaneous mutation frequency ([2]; ACC00445, 2× MIC): 2 × 10^−7
Single-step spontaneous mutation frequency ([2]; ACC00445, 4× MIC): 7 × 10^−8
Single-step spontaneous mutation frequency ([2]; ACC00445, 8× MIC): 3 × 10^−9
Single-step spontaneous mutation frequency ([2]; ACC00445, 16× MIC): <3 × 10^−9
Single-step spontaneous mutation frequency ([2]; ACC00535, 2× MIC): 2 × 10^−7
Single-step spontaneous mutation frequency ([2]; ACC00535, 4× MIC): 2 × 10^−7
Single-step spontaneous mutation frequency ([2]; ACC00535, 8× MIC): 9 × 10^−8
Single-step spontaneous mutation frequency ([2]; ACC00535, 16× MIC): <3 × 10^−9
Single-step spontaneous mutation frequency ([2]; ACC01073, 2× MIC): 1 × 10^−8
Single-step spontaneous mutation frequency ([2]; ACC01073, 4× MIC): 7 × 10^−9
Single-step spontaneous mutation frequency ([2]; ACC01073, 8× MIC): <4 × 10^−9
Single-step spontaneous mutation frequency ([2]; ACC01073, 16× MIC): <4 × 10^−9
Single-step spontaneous mutation frequency ([2]; ACC01077, 2× MIC): 4 × 10^−9
Single-step spontaneous mutation frequency ([2]; ACC01077, 4× MIC): <4 × 10^−9
Single-step spontaneous mutation frequency ([2]; ACC01077, 8× MIC): <4 × 10^−9
Single-step spontaneous mutation frequency ([2]; ACC01077, 16× MIC): <4 × 10^−9
Single-step spontaneous mutation frequency ([2]; ACC01085/AR0307, 2× MIC): 1 × 10^−6
Single-step spontaneous mutation frequency ([2]; ACC01085/AR0307, 4× MIC): <2 × 10^−9
Single-step spontaneous mutation frequency ([2]; ATCC BAA-747, 2× MIC): 2 × 10^−7
Single-step spontaneous mutation frequency ([2]; ATCC BAA-747, 4× MIC): <1 × 10^−8
Single-step spontaneous mutation frequency ([2]; ATCC BAA-747, 8× MIC): <1 × 10^−8
Single-step spontaneous mutation frequency ([2]; ATCC BAA-747, 16× MIC): <1 × 10^−8
Single-step spontaneous mutation frequency ([2]; ROB08706, 2× MIC): 4 × 10^−8
Single-step spontaneous mutation frequency ([2]; ROB08706, 4× MIC): 6 × 10^−8
Single-step spontaneous mutation frequency ([2]; ROB08706, 8× MIC): <2 × 10^−8
Single-step spontaneous mutation frequency ([2]; ROB08706, 16× MIC): <2 × 10^−8
Single-step spontaneous mutation frequency ([2]; ROB08708, 2× MIC): 2 × 10^−7
Single-step spontaneous mutation frequency ([2]; ROB08708, 4× MIC): 1 × 10^−7
Single-step spontaneous mutation frequency ([2]; ROB08708, 8× MIC): <4 × 10^−9
Single-step spontaneous mutation frequency ([2]; ROB08708, 16× MIC): <4 × 10^−9
